The experiment concerns the target Trace amine-associated receptor 1 (Mus musculus, UniProt Q923Y8). As to the kind of experiment: Radioligand Binding Assay : HEK-293 cells stably expressing mouse TAAR1 were maintained at 37° C. and 5% CO2 in DMEM high glucose medium, containing fetal calf serum (10%, heat inactivated for 30 min at 56° C.), penicillin/streptomycin (1%), and 375 μg/ml geneticin (Gibco). Cells were released from culture flasks using trypsin/EDTA, harvested, washed twice with ice-cold PBS (without Ca2+ and Mg2+), pelleted at 1,000 rpm for 5 min at 4° C., frozen and stored at −80° C. Frozen pellets were suspended in 20 ml HEPES-NaOH (20 mM, pH 7.4) containing 10 mM EDTA and homogenized with a Polytron (PT 6000, Kinematica) at 14′000 rpm for 20 s. The homogenate was centrifuged at 48,000×g for 30 min at 4° C. Subsequently, the supernatant was removed and discarded, and the pellet resuspended in 20 ml HEPES-NaOH (20 mM, pH 7.4) containing 0.1 mM EDTA using the Polytron (20 s at 14′000 rpm). This procedure was repeated and the final pellet resuspended in HEPES-NaOH containing 0.1 mM EDTA and homogenized using the Polytron. Typically, aliquots of 2 ml membrane portions were stored at −80° C. With each new membrane batch the dissociation constant (Kd) was determined via a saturation curve.

Trace amine-associated receptor 1, sequence (Q923Y8 whole entry): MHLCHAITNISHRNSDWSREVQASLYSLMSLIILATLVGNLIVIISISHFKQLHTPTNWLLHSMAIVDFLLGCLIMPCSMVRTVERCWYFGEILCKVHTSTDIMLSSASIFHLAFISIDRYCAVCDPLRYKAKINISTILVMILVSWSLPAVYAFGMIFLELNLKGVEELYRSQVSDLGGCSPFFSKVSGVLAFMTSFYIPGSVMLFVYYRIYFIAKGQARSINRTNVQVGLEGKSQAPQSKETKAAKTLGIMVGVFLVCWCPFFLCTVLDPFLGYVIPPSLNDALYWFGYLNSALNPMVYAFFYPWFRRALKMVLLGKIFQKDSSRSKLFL

On to `CCCc1n[nH]c(C(=O)Nc2ccc(C3CNCCO3)nc2)c1Cl` (racemic), for which the Ki was found to be 5.6 nM.

These data come from ChEMBL document CHEMBL5726672, “Morpholin-pyridine derivatives” (2017).
